These results are taken from patent publication US5591734A, “17-(3-furyl)-5β, 14β-androstane derivatives active on the cardiovascular system, processes for their preparation and pharmaceutical compositions containing same” (Sigma-Tau Industrie Farmaceutiche Riunite S.p.A., priority 1992, dated 1997).

Structures are written as SMILES. Counter-ions that a name gives are not always drawn. Like-named read-outs stand apart in the source and are kept apart here.

Test [1] has as its target T1, Na^+,K^+ -ATPase receptor (Homo sapiens, UniProt P05023).
T1 construct: receptor purified according to Jorghensen (Jorghensen P., BBA, 1974, 356, 36); from tissue; kidney outer medulla inferred from the cited Jorgensen method
The experiment in a line: displacement of the specific ^3 H-ouabain binding from the purified Na^+,K^+ -ATPase receptor. The note with it: ^3 H-ouabain displacement, read-out: Binding ^3 H-Ouab. Displacement log IC50 (converted). An excerpt: (§1) To test the affinity for the receptor site of the Na^+,K^+ -ATPase and the inhibitory activity on the enzyme, the following tests were used: a) displacement of the specific ^3 H-ouabain binding from the Na^+,K^^+ -ATPase receptor purified according to Jorghensen (Jorghensen P., BBA, 1974, 356, 36) and Erdmann (Erdmann E. et al., Arzneim. Forsh., 1984, 34, 1314); b) inhibition of the activity of the purified Na^+,K^+ -ATPase measured as % of hydrolysis of ^32 P-ATP in presence and in absence of the tested compound (Mall F. et al., Biochem. Pharmacol., 1984, 33, 47).

Test [2] deals with T2, purified Na^+,K^+ -ATPase (Homo sapiens, UniProt P05023).
T2 construct: receptor purified according to Jorghensen (Jorghensen P., BBA, 1974, 356, 36); from tissue; kidney outer medulla inferred from the cited Jorgensen method
The experiment in a line: biochemical.
From the text: as §1

The test system of test [3] is spontaneous hypertensive rats of the Milan (MHS). Description: antihypertensive activity in spontaneous hypertensive rats (MHS), indirect tail-cuff method. It is filed as in vivo, rat. The note with it: 10 mg/Kg/os daily for ten days in Methocel 0.5% w/v, 7 rats; for SBP (SYSTOLIC BLOOD PRESSURE FALL IN SPONTANEOUS HYPERTENSIVE RATS (MHS)): controls 172 +/- 2.0; for HR (heart rate): controls 328 +/- 8.6.

Where [4] appears, read: purified Na^+,K^+ -ATPase, ^32 P-ATP hydrolysis, read-out: Inhibitory Activity log IC50 (converted).

Usually IC50 stands for the midpoint of a concentration-inhibition curve.

Turning to `C[C@]12CC[C@H](O)C[C@H]1CC[C@@H]1[C@@H]2CC[C@]2(C)[C@@](O)(c3ccoc3)CC[C@]12O` [Comp. I-a, 17β(3-Furyl)-5β-androstane-3β,14β,17α-triol], the IC50 in test [1] was 1580 nM. Besides, the half-maximal inhibitory concentration (IC50) in test [2] (setting [4]) is 31.6 µM. Also, in test [3], the “SBP (SYSTOLIC BLOOD PRESSURE FALL IN SPONTANEOUS HYPERTENSIVE RATS (MHS))” value (“SBP” below) was 149 +/- 4.3 mm Hg and the “HR (heart rate)” value was 318 +/- 10.2 beats/min.
Consider `C[C@]12CC[C@H](OCCO)C[C@H]1CC[C@@H]1[C@@H]2CC[C@]2(C)[C@@](O)(c3ccoc3)CC[C@]12O` [Comp. I-b, 3β-(2-Hydroxyethoxy)-17β-(3-furyl)-5β-androstane-14β,17α-diol], for which the IC50 was 3160 nM in test [1] and 25.1 µM in test [2] (setting [4]).
With `C[C@]12CC[C@H](OCCCN)C[C@H]1CC[C@@H]1[C@@H]2CC[C@]2(C)[C@@](O)(c3ccoc3)CC[C@]12O` [Comp. I-c, 3β-(3-Aminopropoxy), 17β-(3-furyl)-5β-androstane-14β,17α-diol], the values for the IC50 in test [1] and in test [2] (setting [4]) were 501 nM and 7.94 µM, respectively.
As to `C[C@]12CC[C@H](OCCN3CCCC3)C[C@H]1CC[C@@H]1[C@@H]2CC[C@]2(C)[C@@](O)(c3ccoc3)CC[C@]12O` [Comp. I-d, 3β-(2-(1-Pyrrolidinyl)ethoxy)-17β-(3-furyl)-5β-androstane-14β,17α-diol], the concentration for half-maximal inhibition (IC50) in test [1] is 631 nM. In test [2] (setting [4]), the IC50 is 15.8 µM. Also, in test [3], the “SBP” value is 158 +/- 2.5 mm Hg and the “HR (heart rate)” value was 325 +/- 9.3 beats/min.
For the compound `CO[C@]1(c2ccoc2)CC[C@]2(O)[C@@H]3CC[C@@H]4C[C@@H](OCCN5CCCC5)CC[C@]4(C)[C@H]3CC[C@]12C` [Comp. I-f, 3β-(2-(β1-Pyrrolidinyl)ethoxy)-17β-(3-furyl)-17α-methoxy-5β-androstan-14β-ol], the IC50 in test [1] is 5010 nM; in test [2] (setting [4]) it was 25.1 µM.
On to `C[C@]12CCC(=O)C[C@H]1CC[C@@H]1[C@@H]2CC[C@]2(C)[C@@](O)(c3ccoc3)CC[C@]12O` [Comp. I-j], for which the IC50 in test [1] was 3980 nM; in test [2] (setting [4]), 79.4 µM.
For `C[C@]12CCC(=NN=C(N)N)C[C@H]1CC[C@@H]1[C@@H]2CC[C@]2(C)[C@@](O)(c3ccoc3)CC[C@]12O` [Comp. I-k, 3-Guanidinoimino-17β-(3-furyl)-5β-androstane-14β,17α-diol], the IC50 in test [1] was 1000 nM; in test [2] (setting [4]), 15.8 µM.
Turning to `C[C@]12CC[C@H](O)C[C@H]1CC[C@@H]1[C@@H]2CC[C@]2(C)[C@@](O)(c3ccnnc3)CC[C@]12O` [Comp. I-n, 17β-(4-Pyridazinyl)-5β-androstane-3β,14β,17α-triol], the values for the IC50 in test [1] and in test [2] (setting [4]) were 2510 nM and 25.1 µM, respectively.
With `C[C@]12CC[C@H](SCCCN)C[C@H]1CC[C@@H]1[C@@H]2CC[C@@]2(C)[C@@]13O[C@@H]3C[C@]2(O)c1ccoc1` [Comp. I-r, 3β-(3-Aminopropylthio)-14β,15β-epoxy-17β-(3-furyl)-5β-androstan-17α-ol oxalate], in test [1], the IC50 is 3980 nM. Moreover, the IC50 in test [2] (setting [4]) is 31.6 µM. Further, in test [3], the “SBP” value is recorded as 154 +/- 2.4 mm Hg and the “HR (heart rate)” value was 320 +/- 9.6 beats/min.
As for `C[C@]12CC[C@H](OCCOCCN3CCCC3)C[C@H]1CC[C@@H]1[C@@H]2CC[C@]2(C)[C@@](O)(c3ccoc3)CC[C@]12O` [Comp. I-w, 3β-(2-(2-(1-Pyrrolidinyl)ethoxy)ethoxy)-17β-(3-furyl)-5β-androstane-14β,17α-diol], the IC50 was 631 nM in test [1] and 3.98 µM in test [2] (setting [4]).
`CNCCO[C@H]1CC[C@@]2(C)[C@H](CC[C@@H]3[C@@H]2CC[C@]2(C)[C@@](O)(c4ccoc4)CC[C@]32O)C1` [Comp. I-x, 3β-(2-Methylaminoethoxy)-17β-(3-furyl)-5β-androstane 14β,17α-diol]: the values for the IC50 in test [1] and in test [2] (setting [4]) were 501 nM and 10 µM, respectively.
As for `C[C@]12CC[C@H](OCCCNC(=N)N)C[C@H]1CC[C@@H]1[C@@H]2CC[C@]2(C)[C@@](O)(c3ccoc3)CC[C@]12O` [Comp. I-y, 3β(3-Guanidinopropoxy)-17β-(3-furyl)-5β-androstane-14β,17α-diol], the figures for the IC50 in test [1] and in test [2] were 501 nM and 6.31 µM, respectively.
Take `C[C@]12CC[C@H](OCC(N)CN)C[C@H]1CC[C@@H]1[C@@H]2CC[C@]2(C)[C@@](O)(c3ccoc3)CC[C@]12O` (stereo partly drawn) [Comp. I-z, 3β-(2,3-Diaminopropoxy)-17β-(3-furyl)-5β-androstane-14β,17α-diol]: the IC50 in test [1] was 631 nM; in test [2] it was 5.01 µM.
As to `C[C@]12CC[C@H](O)C[C@H]1CC[C@@H]1[C@@H]2CC[C@]2(C)[C@@](O)(C3=CC(=O)OC3)CC[C@]12O` [Ref. Comp., 3β,14β,17α-trihydroxy-5β-card-20(22)-enolide, reference compound], the “HR (heart rate)” value in test [3] was 334 +/- 11.7 beats/min.
